# Where two headings read alike, the source gives them in different places.
# What was measured:
# [1] = target: NEK5 (Homo sapiens (Human), UniProt Q6P3R8); test: KINOMEscan scanMAX; assay type: binding; settings: 2000 nM; read-out: Percent Control
# [2] = target: MAST1 (Homo sapiens (Human), UniProt Q9Y2H9); test: KINOMEscan scanMAX; assay type: binding; settings: 2000 nM; read-out: Percent Control
# [3] = target: MST4 (Homo sapiens (Human), UniProt Q9P289); test: KINOMEscan scanMAX; assay type: binding; settings: 2000 nM; read-out: Percent Control
# [4] = target: CDK5 (Homo sapiens (Human), UniProt Q00535); test: KINOMEscan scanMAX; assay type: binding; settings: 2000 nM; read-out: Percent Control
# [5] = target: TRPM6 (Homo sapiens (Human), UniProt Q9BX84); test: KINOMEscan scanMAX; assay type: binding; settings: 2000 nM; read-out: Percent Control
# [6] = target: EPHA1 (Homo sapiens (Human), UniProt P21709); test: KINOMEscan scanMAX; assay type: binding; settings: 2000 nM; read-out: Percent Control
# [7] = target: PKAC-alpha (PRKACA) (Homo sapiens (Human), UniProt P17612); test: KINOMEscan scanMAX; assay type: binding; settings: 2000 nM; read-out: Percent Control
# [8] = target: PIK3CA(I800L) (Homo sapiens (Human), UniProt P42336, I800L); test: KINOMEscan scanMAX; assay type: binding; settings: 2000 nM; read-out: Percent Control
# [9] = target: PLK2 (Homo sapiens (Human), UniProt Q9NYY3); test: KINOMEscan scanMAX; assay type: binding; settings: 2000 nM; read-out: Percent Control
# Chain of PLK2 (Q9NYY3 whole entry): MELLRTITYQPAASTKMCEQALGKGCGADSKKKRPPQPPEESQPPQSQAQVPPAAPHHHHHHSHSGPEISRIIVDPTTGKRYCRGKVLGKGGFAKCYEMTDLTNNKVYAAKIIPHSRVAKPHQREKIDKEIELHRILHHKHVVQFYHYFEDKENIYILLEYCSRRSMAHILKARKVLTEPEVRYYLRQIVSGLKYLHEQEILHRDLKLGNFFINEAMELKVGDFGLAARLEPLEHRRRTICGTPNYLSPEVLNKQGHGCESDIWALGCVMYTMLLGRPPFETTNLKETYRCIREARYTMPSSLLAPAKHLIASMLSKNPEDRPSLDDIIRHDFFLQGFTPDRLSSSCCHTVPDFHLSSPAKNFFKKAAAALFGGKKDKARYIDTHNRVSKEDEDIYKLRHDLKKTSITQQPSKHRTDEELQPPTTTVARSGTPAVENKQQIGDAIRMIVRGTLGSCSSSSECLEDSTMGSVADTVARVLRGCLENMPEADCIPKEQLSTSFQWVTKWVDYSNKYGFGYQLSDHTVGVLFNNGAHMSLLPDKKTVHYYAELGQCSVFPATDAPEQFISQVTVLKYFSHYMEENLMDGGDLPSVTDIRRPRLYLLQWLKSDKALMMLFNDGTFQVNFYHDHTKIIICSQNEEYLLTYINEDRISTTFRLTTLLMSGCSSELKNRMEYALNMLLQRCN
# [10] = target: BRSK2 (Homo sapiens (Human), UniProt Q8IWQ3); test: KINOMEscan scanMAX; assay type: binding; settings: 2000 nM; read-out: Percent Control
# [11] = target: EGFR(G719S) (Homo sapiens (Human), UniProt P00533, G719S); test: KINOMEscan scanMAX; assay type: binding; settings: 2000 nM; read-out: Percent Control
# Chain of EGFR(G719S) (P00533 25-1210 G719S): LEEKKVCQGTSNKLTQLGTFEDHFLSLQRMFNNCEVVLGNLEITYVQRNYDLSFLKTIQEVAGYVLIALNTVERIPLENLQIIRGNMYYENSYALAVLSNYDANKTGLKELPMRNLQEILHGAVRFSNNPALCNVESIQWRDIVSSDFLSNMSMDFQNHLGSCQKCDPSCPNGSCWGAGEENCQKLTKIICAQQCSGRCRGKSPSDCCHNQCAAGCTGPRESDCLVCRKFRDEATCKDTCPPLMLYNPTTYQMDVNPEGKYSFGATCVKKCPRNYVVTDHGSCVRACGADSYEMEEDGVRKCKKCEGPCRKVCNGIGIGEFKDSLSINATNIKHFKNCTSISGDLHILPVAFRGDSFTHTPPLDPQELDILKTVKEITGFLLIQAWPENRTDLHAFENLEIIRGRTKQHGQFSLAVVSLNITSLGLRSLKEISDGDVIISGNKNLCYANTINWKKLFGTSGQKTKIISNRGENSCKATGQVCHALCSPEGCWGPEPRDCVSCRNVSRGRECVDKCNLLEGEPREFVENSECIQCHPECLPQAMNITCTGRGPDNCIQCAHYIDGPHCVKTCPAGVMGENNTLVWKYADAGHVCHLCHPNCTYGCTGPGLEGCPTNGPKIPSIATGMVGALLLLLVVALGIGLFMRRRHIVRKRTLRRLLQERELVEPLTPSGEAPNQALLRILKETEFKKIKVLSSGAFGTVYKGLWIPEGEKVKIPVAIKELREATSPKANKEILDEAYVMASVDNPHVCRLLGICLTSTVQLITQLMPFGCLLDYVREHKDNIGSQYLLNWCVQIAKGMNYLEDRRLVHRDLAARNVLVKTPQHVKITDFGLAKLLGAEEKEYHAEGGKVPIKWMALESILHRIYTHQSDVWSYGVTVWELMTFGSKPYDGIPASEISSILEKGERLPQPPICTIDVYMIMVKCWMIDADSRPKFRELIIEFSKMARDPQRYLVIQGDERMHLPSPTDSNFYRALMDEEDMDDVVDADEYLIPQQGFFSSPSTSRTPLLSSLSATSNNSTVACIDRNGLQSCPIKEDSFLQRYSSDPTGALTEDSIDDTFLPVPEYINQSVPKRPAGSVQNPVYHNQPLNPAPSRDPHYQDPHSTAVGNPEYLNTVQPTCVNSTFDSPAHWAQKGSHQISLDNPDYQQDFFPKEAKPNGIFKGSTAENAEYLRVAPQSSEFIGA
# [12] = target: GRK2 (ADRBK1) (Homo sapiens (Human), UniProt P25098); test: KINOMEscan scanMAX; assay type: binding; settings: 2000 nM; read-out: Percent Control
# Chain of GRK2 (ADRBK1) (P25098 whole entry): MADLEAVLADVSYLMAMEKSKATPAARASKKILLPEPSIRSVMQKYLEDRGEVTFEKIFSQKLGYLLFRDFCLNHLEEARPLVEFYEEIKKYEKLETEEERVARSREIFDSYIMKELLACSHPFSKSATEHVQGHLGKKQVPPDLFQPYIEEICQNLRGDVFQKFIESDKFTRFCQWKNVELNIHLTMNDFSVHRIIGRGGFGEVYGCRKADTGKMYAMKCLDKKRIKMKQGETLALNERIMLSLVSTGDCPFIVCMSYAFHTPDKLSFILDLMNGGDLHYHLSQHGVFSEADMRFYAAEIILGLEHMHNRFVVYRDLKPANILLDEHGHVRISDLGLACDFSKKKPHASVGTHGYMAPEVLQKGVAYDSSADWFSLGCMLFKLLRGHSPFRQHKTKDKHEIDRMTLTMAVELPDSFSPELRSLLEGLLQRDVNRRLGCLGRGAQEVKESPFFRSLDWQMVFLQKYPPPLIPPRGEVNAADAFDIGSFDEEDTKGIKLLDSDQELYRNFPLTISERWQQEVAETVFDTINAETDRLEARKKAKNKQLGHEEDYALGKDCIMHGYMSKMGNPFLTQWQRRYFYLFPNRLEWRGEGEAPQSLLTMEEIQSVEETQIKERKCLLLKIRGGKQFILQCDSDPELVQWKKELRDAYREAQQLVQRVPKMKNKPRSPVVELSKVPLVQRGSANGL
# [13] = target: JNK3 (MAPK10) (Homo sapiens (Human), UniProt P53779); test: KINOMEscan scanMAX; assay type: binding; settings: 2000 nM; read-out: Percent Control
# Chain of JNK3 (MAPK10) (P53779 whole entry): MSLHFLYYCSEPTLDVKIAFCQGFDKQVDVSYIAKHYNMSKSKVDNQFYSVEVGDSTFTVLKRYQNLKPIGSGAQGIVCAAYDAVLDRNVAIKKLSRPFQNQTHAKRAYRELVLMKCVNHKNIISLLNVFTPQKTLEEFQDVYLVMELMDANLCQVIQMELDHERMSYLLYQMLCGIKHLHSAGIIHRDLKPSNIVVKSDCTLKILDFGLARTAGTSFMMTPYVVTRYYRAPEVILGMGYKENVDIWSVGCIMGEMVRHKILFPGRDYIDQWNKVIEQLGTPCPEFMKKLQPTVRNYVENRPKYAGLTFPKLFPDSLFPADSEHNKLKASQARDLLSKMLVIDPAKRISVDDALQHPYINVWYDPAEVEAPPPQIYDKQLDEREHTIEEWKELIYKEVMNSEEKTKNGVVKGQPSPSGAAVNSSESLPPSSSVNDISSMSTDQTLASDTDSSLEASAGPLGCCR
# [14] = target: INSR (Homo sapiens (Human), UniProt P06213); test: KINOMEscan scanMAX; assay type: binding; settings: 2000 nM; read-out: Percent Control
# [15] = target: ABL1(E255K)-phosphorylated (Homo sapiens (Human), UniProt P00519, E255K); test: KINOMEscan scanMAX; assay type: binding; settings: 2000 nM; read-out: Percent Control
# [16] = target: ULK3 (Homo sapiens (Human), UniProt Q6PHR2); test: KINOMEscan scanMAX; assay type: binding; settings: 2000 nM; read-out: Percent Control
# [17] = target: MET(M1250T) (Homo sapiens (Human), UniProt P08581, M1250T); test: KINOMEscan scanMAX; assay type: binding; settings: 2000 nM; read-out: Percent Control
# Chain of MET(M1250T) (P08581 25-1390 M1250T): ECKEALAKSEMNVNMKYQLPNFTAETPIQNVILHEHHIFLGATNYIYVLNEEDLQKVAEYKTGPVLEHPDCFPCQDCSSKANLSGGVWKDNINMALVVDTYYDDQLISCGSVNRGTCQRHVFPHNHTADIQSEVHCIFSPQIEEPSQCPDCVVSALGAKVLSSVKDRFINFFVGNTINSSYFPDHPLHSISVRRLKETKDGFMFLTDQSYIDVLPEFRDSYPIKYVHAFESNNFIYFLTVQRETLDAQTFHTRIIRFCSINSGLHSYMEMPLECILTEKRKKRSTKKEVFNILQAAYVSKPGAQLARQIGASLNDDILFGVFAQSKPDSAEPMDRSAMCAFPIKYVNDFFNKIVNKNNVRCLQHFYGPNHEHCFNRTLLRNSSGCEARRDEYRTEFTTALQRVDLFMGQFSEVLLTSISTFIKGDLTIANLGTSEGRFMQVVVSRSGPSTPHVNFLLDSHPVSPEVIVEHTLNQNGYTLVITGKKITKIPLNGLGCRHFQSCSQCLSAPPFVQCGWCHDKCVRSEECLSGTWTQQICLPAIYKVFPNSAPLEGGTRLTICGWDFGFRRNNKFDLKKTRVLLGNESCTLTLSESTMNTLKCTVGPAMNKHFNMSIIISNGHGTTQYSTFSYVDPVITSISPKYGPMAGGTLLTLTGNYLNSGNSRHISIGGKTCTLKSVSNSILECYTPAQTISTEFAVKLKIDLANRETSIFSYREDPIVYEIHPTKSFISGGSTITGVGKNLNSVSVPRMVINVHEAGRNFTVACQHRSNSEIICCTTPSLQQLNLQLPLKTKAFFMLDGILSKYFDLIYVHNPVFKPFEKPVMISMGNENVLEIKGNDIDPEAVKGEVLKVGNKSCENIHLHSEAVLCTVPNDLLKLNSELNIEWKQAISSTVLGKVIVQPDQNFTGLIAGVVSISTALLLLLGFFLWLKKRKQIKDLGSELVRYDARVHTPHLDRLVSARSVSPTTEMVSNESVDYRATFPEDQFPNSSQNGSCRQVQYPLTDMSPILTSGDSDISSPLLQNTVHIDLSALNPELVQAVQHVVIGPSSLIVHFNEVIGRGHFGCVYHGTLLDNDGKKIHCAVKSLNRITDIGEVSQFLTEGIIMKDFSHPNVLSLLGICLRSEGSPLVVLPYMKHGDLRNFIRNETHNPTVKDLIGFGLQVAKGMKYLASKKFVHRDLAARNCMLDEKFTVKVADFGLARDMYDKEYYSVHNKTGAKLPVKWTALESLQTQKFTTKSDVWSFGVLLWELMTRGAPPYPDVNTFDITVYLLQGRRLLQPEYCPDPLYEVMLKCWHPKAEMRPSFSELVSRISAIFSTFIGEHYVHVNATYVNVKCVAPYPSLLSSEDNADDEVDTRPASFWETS
# [18] = target: PKNB(M.tuberculosis) (pknB) (Mycobacterium tuberculosis (strain ATCC 25618 / H37Rv), UniProt P9WI81); test: KINOMEscan scanMAX; assay type: binding; settings: 2000 nM; read-out: Percent Control
# [19] = target: MYO3B (Homo sapiens (Human), UniProt Q8WXR4); test: KINOMEscan scanMAX; assay type: binding; settings: 2000 nM; read-out: Percent Control
# [20] = test system: CDK8/19; test: Wash-off assay, MYC and JUN expression in 293 cells (QPCR); assay type: cell-based, human; settings: 1 μM for 2 hours, then wash-off; MYC and JUN
# Experimental: RNA was extracted at different time points after wash-off (up to 24 hrs) and expression of MYC and JUN genes that are CDK8/19-dependent in these cells was measured by QPCR. […] In contrast, after Senexin C treatment and wash-off, the effects of Senexin C were largely retained for at least 6 hrs after wash-off.
# [21] = target: PCTK2 (CDK17) (Homo sapiens (Human), UniProt Q00537); test: KINOMEscan scanMAX; assay type: binding; settings: 2000 nM; read-out: Percent Control
# Chain of PCTK2 (CDK17) (Q00537 whole entry): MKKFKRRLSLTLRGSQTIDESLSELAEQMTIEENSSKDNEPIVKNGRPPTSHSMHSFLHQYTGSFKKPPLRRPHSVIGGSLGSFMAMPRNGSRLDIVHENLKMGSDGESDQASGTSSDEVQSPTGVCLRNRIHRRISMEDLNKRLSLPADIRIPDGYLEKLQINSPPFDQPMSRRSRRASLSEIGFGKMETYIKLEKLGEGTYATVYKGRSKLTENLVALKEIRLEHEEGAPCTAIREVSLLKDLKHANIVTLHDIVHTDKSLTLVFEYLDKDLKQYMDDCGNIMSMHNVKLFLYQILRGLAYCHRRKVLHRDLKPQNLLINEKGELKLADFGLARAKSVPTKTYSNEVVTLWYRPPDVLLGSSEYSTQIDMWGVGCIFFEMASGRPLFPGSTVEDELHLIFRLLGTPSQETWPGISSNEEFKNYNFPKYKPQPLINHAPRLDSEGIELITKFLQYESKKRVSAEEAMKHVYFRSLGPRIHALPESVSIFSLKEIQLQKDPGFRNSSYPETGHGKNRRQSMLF
# [22] = target: EGFR(E746-A750del) (Homo sapiens (Human), UniProt P00533, DEL746-750); test: KINOMEscan scanMAX; assay type: binding; settings: 2000 nM; read-out: Percent Control
# [23] = target: CAMK4 (Homo sapiens (Human), UniProt Q16566); test: KINOMEscan scanMAX; assay type: binding; settings: 2000 nM; read-out: Percent Control
# [24] = target: RSK2(Kin.Dom.1-N-terminal) (RPS6KA3) (Homo sapiens (Human), UniProt P51812); test: KINOMEscan scanMAX; assay type: binding; settings: 2000 nM; read-out: Percent Control
# [25] = target: MAP3K4 (Homo sapiens (Human), UniProt Q9Y6R4); test: KINOMEscan scanMAX; assay type: binding; settings: 2000 nM; read-out: Percent Control
# [26] = target: NIM1 (MGC42105) (Homo sapiens (Human), UniProt Q8IY84); test: KINOMEscan scanMAX; assay type: binding; settings: 2000 nM; read-out: Percent Control
# [27] = target: PIP5K2B (PIP4K2B) (Homo sapiens (Human), UniProt P78356); test: KINOMEscan scanMAX; assay type: binding; settings: 2000 nM; read-out: Percent Control
# [28] = target: SBK1 (Homo sapiens (Human), UniProt Q52WX2); test: KINOMEscan scanMAX; assay type: binding; settings: 2000 nM; read-out: Percent Control
# [29] = test system: CDK8/19-mediated NFκB-driven transcription; test: NFκB-dependent luciferase reporter assay in parental 293 reporter cells; assay type: cell-based, human; settings: Homo sapiens
# [30] = target: AKT1 (Homo sapiens (Human), UniProt P31749); test: KINOMEscan scanMAX; assay type: binding; settings: 2000 nM; read-out: Percent Control
# [31] = target: CASK (Homo sapiens (Human), UniProt O14936); test: KINOMEscan scanMAX; assay type: binding; settings: 2000 nM; read-out: Percent Control
# [32] = target: ULK1 (Homo sapiens (Human), UniProt O75385); test: KINOMEscan scanMAX; assay type: binding; settings: 2000 nM; read-out: Percent Control
# [33] = target: KIT(L576P) (Homo sapiens (Human), UniProt P10721, L576P); test: KINOMEscan scanMAX; assay type: binding; settings: 2000 nM; read-out: Percent Control
# [34] = target: DRAK2 (STK17B) (Homo sapiens (Human), UniProt O94768); test: KINOMEscan scanMAX; assay type: binding; settings: 2000 nM; read-out: Percent Control
# [35] = target: PIK3CB (Homo sapiens (Human), UniProt P42338); test: KINOMEscan scanMAX; assay type: binding; settings: 2000 nM; read-out: Percent Control
# [36] = target: DYRK2 (Homo sapiens (Human), UniProt Q92630); test: KINOMEscan scanMAX; assay type: binding; settings: 2000 nM; read-out: Percent Control
# [37] = target: CDC2L5 (CDK13) (Homo sapiens (Human), UniProt Q14004); test: KINOMEscan scanMAX; assay type: binding; settings: 2000 nM; read-out: Percent Control
smiles,measurement,setting,value
"CN1CCN(C(=O)c2ccc3cc(CCNc4ccnc5ccc(C#N)cc45)ccc3c2)CC1 [compound 6148, 4-((2-(6-(4-methylpiperazine-1-carbonyl)naphthalen-2-yl)ethyl)amino)quinoline-6-carbonitrile]",remaining binding at 2 µM,[1],97%
same,remaining binding at 2 µM,[2],96%
same,remaining binding at 2 µM,[3],68%
same,remaining binding at 2 µM,[4],100%
same,remaining binding at 2 µM,[5],88%
same,remaining binding at 2 µM,[6],93%
same,remaining binding at 2 µM,[7],93%
same,remaining binding at 2 µM,[8],72%
same,remaining binding at 2 µM,[9],80%
same,remaining binding at 2 µM,[10],96%
same,remaining binding at 2 µM,[11],100%
same,remaining binding at 2 µM,[12],63%
same,remaining binding at 2 µM,[13],61%
same,remaining binding at 2 µM,[14],93%
same,remaining binding at 2 µM,[15],93%
same,remaining binding at 2 µM,[16],70%
same,remaining binding at 2 µM,[17],88%
same,remaining binding at 2 µM,[18],93%
same,remaining binding at 2 µM,[19],31%
same,Time effects largely retained after wash-off,[20],at least 6 hrs
same,remaining binding at 2 µM,[21],98%
same,remaining binding at 2 µM,[22],100%
same,remaining binding at 2 µM,[23],95%
same,remaining binding at 2 µM,[24],62%
same,remaining binding at 2 µM,[25],81%
same,remaining binding at 2 µM,[26],67%
same,remaining binding at 2 µM,[27],85%
same,remaining binding at 2 µM,[28],57%
same,IC50,"[29]; 293/NFkB-luc, read-out: IC50 (293-NFKB-Luc)",55 nM
same,IC50,"[29]; HEK293, parental 293-derived reporter cell line, read-out: HEK293 NFKB CDK8 Reporter IC50",65 nM
same,remaining binding at 2 µM,[30],89%
same,remaining binding at 2 µM,[31],84%
same,remaining binding at 2 µM,[32],66%
same,remaining binding at 2 µM,[33],100%
same,remaining binding at 2 µM,[34],87%
same,remaining binding at 2 µM,[35],64%
same,remaining binding at 2 µM,[36],68%
same,remaining binding at 2 µM,[37],64%

# Reference: patent US12281080B2, “Quinoline-based compounds and methods of inhibiting CDK8/19” (University of South Carolina, priority 2018, dated 2025)
